Test results reported in patent US8338594B2, “Pyrrolotriazine derivatives useful for treating cancer through inhibition of aurora kinase” (Bayer HealthCare LLC, priority 2005, dated 2012).

Legend:
[1] = molecular target: T1, murine Aurora Kinase 1 (mAur1) (Mus musculus, UniProt O70126); test: murine Aurora Kinase 1 (mAur1) biochemical Scintillation Proximity Assay; settings: SPA, biotinylated Peptide 830, 1 μM ATP, 12 nM GST-tagged mAur 1 co-expressed with human INCENP
T1 construct: recombinant, GST-tagged mAur 1 (amino acids 67-345) that was co-expressed with human INCENP; GST; made in house
T1 sequence (O70126 67-345): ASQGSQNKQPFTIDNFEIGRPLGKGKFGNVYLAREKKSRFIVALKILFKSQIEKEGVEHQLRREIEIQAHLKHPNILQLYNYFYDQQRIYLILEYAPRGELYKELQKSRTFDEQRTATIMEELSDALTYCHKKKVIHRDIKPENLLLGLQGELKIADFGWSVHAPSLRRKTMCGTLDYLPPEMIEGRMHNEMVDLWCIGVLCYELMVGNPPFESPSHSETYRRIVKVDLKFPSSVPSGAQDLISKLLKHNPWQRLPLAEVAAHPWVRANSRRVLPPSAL
T1 sequence (Q9NQS7 704-918 partner): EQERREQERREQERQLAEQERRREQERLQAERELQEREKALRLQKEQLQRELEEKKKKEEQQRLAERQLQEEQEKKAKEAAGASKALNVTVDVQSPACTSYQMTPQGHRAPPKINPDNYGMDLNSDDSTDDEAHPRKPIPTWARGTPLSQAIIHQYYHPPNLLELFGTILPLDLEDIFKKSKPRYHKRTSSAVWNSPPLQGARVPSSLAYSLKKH
Outline: (§1)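 SPA with biotinylated Peptide 830 (1 μM), 1 μM cold ATP plus 0.1 μCi ^33P-ATP, in 25 mM HEPES pH 7.5, 1 mM MnCl2/MgCl2, 1 mM DTT. Enzymes: GST-mAur1 (aa 67-345) co-expressed with human INCENP (704-919), 12 nM; His-mAur2 (aa 98-395), 20 nM. Eight-point 1:5 dose curves, 1-2 h at 25° C, 1% DMSO; IC50 from curves.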

[2] = molecular target: T2, murine Aurora Kinase 2 (mAur2) (Mus musculus, UniProt P97477); test: murine Aurora Kinase 2 (mAur2) biochemical Scintillation Proximity Assay; settings: SPA, biotinylated Peptide 830, 1 μM ATP, 20 nM His-tagged mAur2
T2 construct: N-terminal His-tagged mAur2 (amino acids 98-395; DRT, Protein Sciences); His (N); made in house
T2 sequence (P97477 98-395): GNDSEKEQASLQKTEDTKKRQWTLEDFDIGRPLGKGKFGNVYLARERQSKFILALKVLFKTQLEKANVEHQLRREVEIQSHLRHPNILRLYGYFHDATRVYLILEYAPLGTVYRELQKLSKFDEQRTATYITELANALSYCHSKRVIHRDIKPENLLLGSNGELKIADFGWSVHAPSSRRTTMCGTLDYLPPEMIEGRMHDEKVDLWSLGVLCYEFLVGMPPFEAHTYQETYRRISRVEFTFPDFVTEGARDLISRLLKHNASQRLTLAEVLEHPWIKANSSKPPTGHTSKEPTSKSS
Outline: as §1

[3] = molecular target: T3, Aurora Kinase 1 (Homo sapiens, UniProt Q96GD4); test: capture ELISA measuring Aurora Kinase 1 autophosphorylation in HT29 colon carcinoma cells; type: cell-based; settings: HT29 cells synchronized for 24 hours, compound treatment 2 hours
T3 construct: endogenous in cells; host or cells: HT29 colon carcinoma cells
T3 sequence (Q96GD4 whole entry): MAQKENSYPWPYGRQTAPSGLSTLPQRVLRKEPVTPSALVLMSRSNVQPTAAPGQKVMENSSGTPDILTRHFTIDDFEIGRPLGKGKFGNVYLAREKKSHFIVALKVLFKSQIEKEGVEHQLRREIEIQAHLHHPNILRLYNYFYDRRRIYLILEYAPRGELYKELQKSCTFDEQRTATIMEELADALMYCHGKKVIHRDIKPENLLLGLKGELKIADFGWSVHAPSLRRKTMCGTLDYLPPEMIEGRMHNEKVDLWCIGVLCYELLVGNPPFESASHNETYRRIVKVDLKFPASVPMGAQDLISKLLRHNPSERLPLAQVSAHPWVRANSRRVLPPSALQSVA
Description: To determine the ability of compounds to inhibit Aurora Kinase 1 activity in cells, a capture ELISA measuring Aurora Kinase 1 autophosphorylation was developed in HT29 colon carcinoma cells (Yasui Y, et al 2004). Briefly, 15,000 cells/well were seeded in a 96-well collagen coated plates in RPMI+10% FBS and incubated at 37° C. in 5% CO2 overnight. The following day, the cells were treated with 166 nM nacadazole compounds for 24 hours at 37° C. Synchronized cells were further treated with compounds for 2 hours. Compound dilutions were prepared from 0.1 mM DMSO stocks such that 1.1 μL of each dilution was added to obtain a final concentration ranging from 10 μM to 13 nM in one-third log steps. Following compound treatment, plates were centrifuged at 1000 rpm for 2 minutes and washed twice with 100 μL of cold sterile TBS. Cells were then lysed (100 μL of 150 mM NaCl, 20 mM Tris, pH 7.5, 1 mM EDTA, 1 mM EGTA, 1% Triton-x-100 plus protease and phosphatase inhibitors) by shaking at 4° C. for 1 hour. Cell lysates were transferred to plates pre-coated with anti-phospho mAur1 (Rockland, 600-401-677) and blocked with 5% blocker A in TBS from Meso Scale Discovery. After incubating for 1 hour at RT, plates were washed with 300 μL of TBST for a total of three times. The supernatant was removed and replaced with 50 μL of diluted primary antibody (anti-Aurora Kinase 1, Pharmingen, 611083) at 1:1000 in 2% blocker A in TBS and incubated at room temperature for 1 hour. The antibody buffer was removed from each well and washed three times with 300 μL of cold TBS-T ([…] Tris pH 8.0, 138 mM NaCl, 2.7 mM KCL, 0.05% Tween 20). The wash buffer was replaced with 50 μL of secondary antibody (Sulfa TAG anti-mouse, Meso Scale Discovery) at 1:1000 in 2% blocker A and incubated at room temperature for 1 hour. For the final readout with the Sector 6000, 150 μL of reading buffer T was added and the plates were read immediately.

Structure (SMILES)	IC50 [1] [nM]	IC50 [2] [nM]	IC50 [3] [nM]
Nc1ncnn2cc(C(=O)NCC(F)(F)F)c(-c3ccc(Nc4nc5cc6c(cc5[nH]4)OC(F)(F)O6)cc3)c12 [Example 17, 4-amino-5-{4-[(2,2-difluoro-5H-[1,3]dioxolo[4,5-f]benzimidazol-6-yl)amino]phenyl}-N-(2,2,2-trifluoroethyl)pyrrolo[2,1-f][1,2,4]triazine-6-carboxamide]	< 100	< 100	< 1000
Nc1ncnn2cc(C(=O)NCC(F)(F)F)c(-c3ccc(Nc4nc5ccc(Oc6ccccc6)c(F)c5[nH]4)cc3)c12 [Example 32, 4-amino-5-{4-[(7-fluoro-6-phenoxy-1H-benzimidazol-2-yl)amino]phenyl}-N-(2,2,2-trifluoroethyl)pyrrolo[2,1-f][1,2,4]triazine-6-carboxamide]			< 1000
Nc1ncnn2cc(C(=O)NCC(F)(F)F)c(-c3ccc(Nc4nc5ccc(Oc6ccc(F)cc6)c(F)c5[nH]4)cc3)c12 [Example 35, 4-amino-5-(4-{[7-fluoro-6-(4-fluorophenoxy)-1H-benzimidazol-2-yl]amino}phenyl)-N-(2,2,2-trifluoroethyl)pyrrolo[2,1-f][1,2,4]triazine-6-carboxamide]			< 1000
Nc1ncnn2cc(C(=O)NCC(F)(F)F)c(-c3ccc(Nc4nc5ccc(NC6CCC6)nc5[nH]4)cc3)c12 [Example 47, 4-amino-5-(4-{[5-(cyclobutylamino)-3H-imidazo[4,5-b]pyridin-2-yl]amino}phenyl)-N-(2,2,2-trifluoroethyl)pyrrolo[2,1-f][1,2,4]triazine-6-carboxamide]	< 100	< 100	< 1000
CC(C)(C)NC(=O)c1cn2ncnc(N)c2c1-c1ccc(Nc2nc3cc(F)cc(F)c3[nH]2)cc1 [Example 72, 4-amino-N-(tert-butyl)-5-{4-[(5,7-difluoro-1H-benzimidazol-2-yl)amino]phenyl}pyrrolo[2,1-f][1,2,4]triazine-6-carboxamide]	< 100	< 100	< 1000
CNC(=O)c1cn2ncnc(N)c2c1-c1ccc(Nc2nc3ccc(Oc4ccccc4)c(F)c3[nH]2)cc1 [Example 102, 4-amino-5-{4-[(7-fluoro-6-phenoxy-1H-benzimidazol-2-yl)amino]phenyl}-N-methylpyrrolo[2,1-f][1,2,4]triazine-6-carboxamide]	< 100	< 100	< 1000
